These results are taken from US9259432B1, “Composition and methods for targeted delivery of a therapeutic compound to the brain or spinal cord of a subject for treatment of neurodegenerative diseases” (Parminder J. S. Vig, priority 2011, dated 2016).

The assay has as its system SHSY5Y cells. As to the kind of experiment: 488-S100B uptake in SHSY5Y cells. The assay is classed as cell-based. The conditions noted are these: then 1 μM 488-S100B 3 hrs. How it is done: FIG. 14: (a) WT SHSY5Y cells were placed on chamber slides and pretreated with 50 μM Synb1-ELP-TRTK or Synb1-ELP-GGC for 1 hr at 37° C. Next, cells were washed then treated with 1 μM 488-S100B for 3 hrs followed by washing, fixation and DAPI staining. Shown is DAPI nuclear stain in blue and 488-S100B in green. Scale bar: 10 μm. (b) SHSY5Y cells were placed on 6-well plates and pretreated with 50 μM Synb1-ELP-TRTK12 or Synb1-ELP-GGC for 1 hr at 37° C. then treated with 1 μM 488-S100B for 3 hrs, then cells were removed and 488-S100B uptake was measured using flow cytometry. Data is shown as MEAN±STDEV of the % Uptake relative to the control. Statistics were taken using student's t-test. *P<0.05.
SHSY5Y cells (Invitrogen, Carlsbad, Calif., USA) were maintained in DMEM/F12 media (Fisher, Houston, Tex., USA) supplemented with 15% FBS, penicillin-streptomycin (Sigma), and grown in an incubator at 37° C. in the presence of 5% CO2. […] Next, cells were washed then treated with 1 μM 488-S100B for 3 hrs and S100B uptake was analyzed by Epi-fluorescence or by Beckman Cytometric FC 500 flow cytometer as previously described (Bidwell et al., 2009). For flow cytometry experiments, 488-S100B uptake was measured by quenching extracellular fluorescence by coating the cells with Trypan Blue (Fisher) as described previously (Bidwell et al., 2009). […]

Consider “Synb1-ELP-TRTK: thermally responsive S100B inhibitory polypeptide: Synb1 cell penetrating peptide, elastin-like polypeptide (ELP) and TRTK12 peptide fused”, for which the “488-S100B uptake, epi-fluorescence” value (50 μM pretreatment 1 hr at 37° C.) is recorded as “reduced 488-S100B cellular uptake”. Further, the “488-S100B uptake, flow cytometry” value (50 μM pretreatment 1 hr, vs Control and Synb1-ELP-GGC pretreated cells) is “significantly reduced 488-S100B uptake”.
